From patent US9676704B2, “Pesticidal compositions and processes related thereto” (Dow AgroSciences LLC, priority 2014, dated 2017)
Read-outs that look alike come from different tables or passages of the source.

Assays:
Beet Armyworm (BAW) = test: Bioassays on BAW, 128-well diet tray assay; assay type: in vivo; conditions: Spodoptera exigua; for mortality at 50 µg/cm2: 168 h, read-out: BAW % Control (or Mortality) rating
How it was run: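 Test compound was applied at 50 μg/cm^2 in 90:10 acetone-water to the artificial diet surface and dried, with eight wells per compound. One to five second-instar beet armyworm larvae were placed per well and held at 25 °C, 14:10 light-dark, for five to seven days. Percent mortality was averaged over the wells.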

Cabbage Looper (CL) = test: Bioassays on CL, 128-well diet tray assay; assay type: in vivo; conditions: Trichoplusia ni; for mortality at 50 µg/cm2: 168 h, read-out: CL % Control (or Mortality) rating
How it was run: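 Second-instar larvae, one to five per well, were placed on artificial diet treated with 50 μg/cm^2 compound (in 90:10 acetone-water) and dried, with eight wells per compound. Trays were held at 25° C, 14:10 light-dark, for five to seven days. Percent mortality was scored per well and averaged.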

Green Peach Aphid (GPA) = test: Bioassays on Green Peach Aphid, cabbage seedling foliar spray; assay type: in vivo; conditions: Myzus persicae, 72 h; 200 ppm foliar spray on cabbage seedlings, three days, Abbott corrected % control; read-out: GPA % Control (or Mortality) rating
Protocol: Cabbage seedlings grown in 3-inch pots, with 2-3 small (3-5 cm) true leaves, were used as test substrate. The seedlings were infested with 20-50 GPA (wingless adult and nymph stages) one day prior to chemical application. Four pots with individual seedlings were used for each treatment. Test compounds (2 mg) were dissolved in 2 mL of acetone/MeOH (1:1) solvent, forming stock solutions of 1000 ppm test compound. The stock solutions were diluted 5× with 0.025% Tween 20 in water to obtain the solution at 200 ppm test compound. A hand-held aspirator-type sprayer was used for spraying a solution to both sides of […] leaves until runoff. Reference plants (solvent check) were sprayed with the diluent only containing 20% by volume of acetone/MeOH (1:1) solvent. Treated plants were held in a holding room for three days at approximately 25° C. and ambient relative humidity (RH) prior to grading. Evaluation was conducted by counting the number of live aphids per plant under a microscope. Percent Control was measured by using Abbott's correction formula (W. S. Abbott, “A Method of Computing the Effectiveness of an Insecticide” J. Econ. Entomol. 18 (1925), pp. 265-267) as follows. Corrected % Control=100*(X−Y)/X where X=No. of live aphids on solvent check plants and Y=No. of live aphids on treated plants. The results are indicated in the table entitled “Table ABC: Assay Results (F)” and “Table ABCD: Assay Results (C)” (See Table Section).

[1] = test system: Yellow Fever Mosquito (YFM); assay type: in vivo, Aedes aegypti; conditions: 15 μL of diluted 4000 ppm master solution per well, about 1 day-old larvae, 3 days
Protocol: Master plates containing 400 μg of a molecule dissolved in 100 μL of dimethyl sulfoxide (DMSO) (equivalent to a 4000 ppm solution) are used. A master plate of assembled molecules contains 15 μL per well. To this plate, 135 μL of a 90:10 water:acetone mixture is added to each well. A robot (Biomek® NXP Laboratory Automation Workstation) is programmed to dispense 15 μL aspirations from the master plate into an empty 96-well shallow plate (“daughter” plate). There are 6 reps (“daughter” plates) created per master. The created daughter plates are then immediately infested with YFM larvae. The day before plates are to be treated, mosquito eggs are placed in Millipore water containing liver powder to begin hatching (4 g. into 400 mL). After the daughter plates are created using the robot, they are infested with 220 μL of the liver powder/larval mosquito mixture (about 1 day-old larvae). After plates are infested with mosquito larvae, a non-evaporative lid is used to cover the plate to reduce drying. Plates are held at room temperature for 3 days prior to grading. After 3 days, each well is observed and scored based on mortality. The results are indicated in the table entitled “Table ABC: Assay Results (F)” and “Table ABCD: Assay Results (C)” (See Table Section). Pesticidally Acceptable Acid Addition Salts, Salt Derivatives, Solvates, Ester Derivatives, Polymorphs, Isotopes and Radionuclides

[2] = 50 μg/cm^2 on artificial diet, second instar larvae, five to seven days, 25° C.

Structure (SMILES) | mortality at 50 µg/cm2 (Beet Armyworm (BAW); [2]) [%] | mortality at 50 µg/cm2 (Cabbage Looper (CL); [2]) [%] | YFM % Control (or Mortality) rating [1] | further results
C[C@H](NC(=O)CC[S+](C)[O-])NC(=O)c1ccc(/C=C/C(c2cc(Cl)c(Cl)c(Cl)c2)C(F)(F)F)cc1C(F)(F)F (stereo partly drawn) [Compound P49, N-((1R)-1-(3-(methylsulfinyl)propanamido)ethyl)-4-((E)-4,4,4-trifluoro-3-(3,4,5-trichlorophenyl)but-1-en-1-yl)-2-(trifluoromethyl)benzamide] | 50 to 100 | 50 to 100 |  | mortality at 200 ppm (Green Peach Aphid (GPA)): 0 to 80%
C[C@H](NC(=O)CCC(F)(F)F)NC(=O)c1ccc(/C=C/C(c2cc(Cl)c(Cl)c(Cl)c2)C(F)(F)F)cc1Br (stereo partly drawn) [Compound P27, 2-Bromo-4-((E)-4,4,4-trifluoro-3-(3,4,5-trichlorophenyl)but-1-en-1-yl)-N—((R)-1-(4,4,4-trifluorobutanamido)ethyl)benzamide] | 50 to 100 | 50 to 100 | B (More than 0-Less than 80) | mortality at 0.05 µg/cm2 (Beet Armyworm (BAW); 0.05 μg/cm^2, read-out: BAW Percent control (or mortality)): 0%; mortality at 0.5 µg/cm2 (Beet Armyworm (BAW); 0.5 μg/cm^2, read-out: BAW Percent control (or mortality)): 0%; mortality at 5 µg/cm2 (Beet Armyworm (BAW); 5 μg/cm^2, read-out: BAW Percent control (or mortality)): 7%; mortality at 0.05 µg/cm2 (Cabbage Looper (CL); 0.05 μg/cm^2, read-out: CL Percent control (or mortality)): 0%; mortality at 0.5 µg/cm2 (Cabbage Looper (CL); 0.5 μg/cm^2, read-out: CL Percent control (or mortality)): 7%; mortality at 5 µg/cm2 (Cabbage Looper (CL); 5 μg/cm^2, read-out: CL Percent control (or mortality)): 100%
C[C@H](NC(=O)CCC(C)(C)C)NC(=O)c1ccc(/C=C/C(c2cc(Cl)c(Cl)c(Cl)c2)C(F)(F)F)cc1C(F)(F)F (stereo partly drawn) [Compound F17, N—((R)-1-(4,4-Dimethylpentanamido)ethyl)-4-((E)-4,4,4-trifluoro-3-(3,4,5-trichlorophenyl)but-1-en-1-yl)-2-(trifluoromethyl)benzamide] | 50 to 100 | 50 to 100 | A (80-100) | 
C[C@H](NC(=O)CCC(F)(F)F)NC(=O)c1ccc(/C=C/C(c2cc(Br)cc(Br)c2)C(F)(F)F)cc1C(F)(F)F (stereo partly drawn) [Compound P11, 4-((E)-3-(3,5-Dibromophenyl)-4,4,4-trifluorobut-1-en-1-yl)-N—((R)-1-(4,4,4-trifluorobutanamido)ethyl)-2-(trifluoromethyl)benzamide] | 50 to 100 | 50 to 100 | A (80-100) | 
C[C@H](NC(=O)CC(C)(C)C)NC(=O)c1ccc(/C=C/C(c2cc(Cl)c(Cl)c(Cl)c2)C(F)(F)F)cc1C(F)(F)F (stereo partly drawn) [Compound F15, N—((R)-1-(3,3-Dimethylbutanamido)ethyl)-4-((E)-4,4,4-trifluoro-3-(3,4,5-trichlorophenyl)but-1-en-1-yl)-2-(trifluoromethyl)benzamide] | 50 to 100 | 50 to 100 | A (80-100) | 
Cc1cc(/C=C/C(c2cc(Cl)c(F)c(Cl)c2)C(F)(F)F)ccc1C(=O)N[C@H](C)NC(=O)CCC(F)(F)F (stereo partly drawn) [Compound P13, 4-((E)-3-(3,5-Dichloro-4-fluorophenyl)-4,4,4-trifluorobut-1-en-1-yl)-2-methyl-N—((R)-1-(4,4,4-trifluorobutanamido)ethyl)benzamide] | 50 to 100 | 50 to 100 | A (80-100) | 
C[C@H](NC(=O)CC(F)(F)F)NC(=O)c1ccc(/C=C/C(c2cc(Cl)c(Br)c(Cl)c2)C(F)(F)F)cc1C(F)(F)F (stereo partly drawn) [Compound P4, 4-((E)-3-(4-Bromo-3,5-dichlorophenyl)-4,4,4-trifluorobut-1-en-1-yl)-2-(trifluoromethyl)-N—((R)-1-(3,3,3-trifluoropropanamido)ethyl)benzamide] | 50 to 100 | 50 to 100 | A (80-100) | 
C[C@H](NC(=O)CC(F)(F)F)NC(=O)c1ccc(/C=C/C(c2cc(Br)cc(Br)c2)C(F)(F)F)cc1C(F)(F)F (stereo partly drawn) [Compound P3, 4-((E)-3-(3,5-Dibromophenyl)-4,4,4-trifluorobut-1-en-1-yl)-2-(trifluoromethyl)-N—((R)-1-(3,3,3-trifluoropropanamido)ethyl)benzamide] | 50 to 100 | 50 to 100 | B (More than 0-Less than 80) | 
C[C@H](NC(=O)C[S+](C)[O-])NC(=O)c1ccc(/C=C/C(c2cc(Cl)c(Cl)c(Cl)c2)C(F)(F)F)cc1C(F)(F)F (stereo partly drawn) [Compound P36, N-((1S)-1-(2-(Methylsulfinyl)acetamido)ethyl)-4-((E)-4,4,4-trifluoro-3-(3,4,5-trichlorophenyl)but-1-en-1-yl)-2-(trifluoromethyl)benzamide] | 50 to 100 | 50 to 100 |  | mortality at 200 ppm (Green Peach Aphid (GPA)): 0%
Cc1cc(/C=C/C(c2cc(Br)c(Cl)c(Br)c2)C(F)(F)F)ccc1C(=O)N[C@H](C)NC(=O)CCC(F)(F)F (stereo partly drawn) [Compound P14, 4-((E)-3-(3,5-Dibromo-4-chlorophenyl)-4,4,4-trifluorobut-1-en-1-yl)-2-methyl-N—((R)-1-(4,4,4-trifluorobutanamido)ethyl)benzamide] | 50 to 100 | 50 to 100 | A (80-100) | 
CN(NC(=O)c1ccc(/C=C/C(c2cc(Cl)c(Cl)c(Cl)c2)C(F)(F)F)cc1C(F)(F)F)C(=O)OC(C)(C)C (stereo not drawn) [Compound C116, (E)-tert-butyl 1-methyl-2-(4-(4,4,4-trifluoro-3-(3,4,5-trichlorophenyl)but-1-en-1-yl)-2-(trifluoromethyl)benzoyl)hydrazinecarboxylate] |  |  | A (80-100) | mortality at 50 µg/cm2 (Beet Armyworm (BAW)): 50 to 100%; mortality at 50 µg/cm2 (Cabbage Looper (CL)): 50 to 100%
CCCCCC(=O)N[C@@H](C)NC(=O)c1ccc(/C=C/C(c2cc(Cl)c(Cl)c(Cl)c2)C(F)(F)F)cc1C(F)(F)F (stereo partly drawn) [Compound F3, N—((R)-1-hexanamidoethyl)-4-((E)-4,4,4-trifluoro-3-(3,4,5-trichlorophenyl)but-1-en-1-yl)-2-(trifluoromethyl)benzamide] | 50 to 100 | 50 to 100 | A (80-100) | 
CN(CCNC(=O)c1ccc(/C=C/C(c2cc(Cl)c(Cl)c(Cl)c2)C(F)(F)F)cc1C(F)(F)F)C(=O)C(F)(F)F (stereo not drawn) [Compound F21, (E)-4-(4,4,4-trifluoro-3-(3,4,5-trichlorophenyl)but-1-en-1-yl)-N-(2-(2,2,2-trifluoro-N-methylacetamido)ethyl)-2-(trifluoromethyl)benzamide] | 50 to 100 | 50 to 100 | B (More than 0-Less than 80) | 
C[C@H](NC(=O)CCC(F)(F)F)NC(=O)c1ccc(/C=C/C(c2cc(Br)c(Cl)c(Br)c2)C(F)(F)F)cc1C(F)(F)F (stereo partly drawn) [Compound P10, 4-((E)-3-(3,5-Dibromo-4-chlorophenyl)-4,4,4-trifluorobut-1-en-1-yl)-N—((R)-1-(4,4,4-trifluorobutanamido)ethyl)-2-(trifluoromethyl)benzamide] | 50 to 100 | 50 to 100 | A (80-100) | 
